Assay: Human HepG2 cell viability assay in 384 well format
Assay type: toxicity, cell-based
Parameters: dose 125 nL, time 70.5 hour; cytotoxicity at 70.5 h: concentration not given beside the values
Conditions: HepG2 cells, read-out: Inhibition

SMILES | cytotoxicity at 70.5 h [%]
Cc1noc(C)c1CNC(=O)N1CCC(CN2CCC(C)CC2)CC1 | -2.8
Cc1cc(N2CCN(C(=O)c3cc(Cl)c[nH]3)CC2)nc(C)n1 | -4.7
Cc1cccc(N2CCN(C(=O)CN3CCC(C(N)=O)CC3)CC2)c1 | -2.32
CCN(c1ccc(C(=O)Nc2c(C)nn(C(C)C)c2C)cc1)C(C)C | -7.4
CCOc1cc(C)nc(N2CCN(C(=O)c3cc(Cl)c[nH]3)CC2)n1 | -8.74
NC(=O)NC(=O)CCN(Cc1ccccc1)CC1CCOCC1 | -2.94
Cc1noc(C)c1CNC(=O)N1CCC(NS(C)(=O)=O)CC1 | -3.15
Cc1ccc(C(=O)Nc2cnn(CC(=O)NC3CCCC3)c2)c(=O)[nH]1 | -3.7
Cc1ccc(OCC(=O)NCc2ccco2)nc1 | -2.92
CCN(CC)c1ccc(NS(=O)(=O)c2cnn(C(C)C)c2)cn1 | -6.47
Cc1ccc(OCC(=O)NCC(F)(F)F)nc1 | -4.18
COCCCN1CCC(NC(=O)C2CC2)CC1 | -4.57
CC(C)(C)c1cnc(CNCC2CCCN2c2cccnn2)o1 (centres undefined) | 18.8
CN(Cc1nnc(C2CC2)n1C)C1CCN(CCS(C)(=O)=O)C1 (centres undefined) | -6.94
CCN(CC)C(=O)CN(C)CCn1nc2ccccn2c1=O | -4.24
CC(=O)N1CCCN(CCn2nc3ccccn3c2=O)CC1 | -0.882
N#Cc1ncn(CCC(=O)Nc2ccc(F)c(F)c2)n1 | -9.3
CCC(=O)Nc1ccc(C(C)NC(=O)COC)cc1 (centres undefined) | -9.08
O=C(NCCCN1CCOCC1)c1cc(-c2ccccc2)[nH]n1 | -1.59
CC(=O)N(c1ccc(C)cc1)c1nc(CN2CCCC(C)C2)cs1 (centres undefined) | 12.3
O=C(CCc1ccccn1)N1CCSC2(CCCCC2)C1 | 3.22
CC(C)=CCN1CCN(C(C)c2cccnc2)CC1 (centres undefined) | -1.42
Cc1ccc(CNC(=O)CN(C)CC2CCN(CCO)CC2)s1 | 2.24
CC(c1cccnc1)N1CCN(CCCC#N)CC1 (centres undefined) | 15

SMILES | cytotoxicity at 70.5 h [%]
COc1cccc(SCC(=O)N2CCC(N3CCCC3=O)CC2)c1 | -6.36
CCN(Cc1ccoc1)C(C(N)=O)c1ccc(C#N)cc1 (centres undefined) | -1.21
COc1ncccc1C(=O)N1CCCC1c1c(C)n[nH]c1C (centres undefined) | 37.5
C1CCC(NCC2(N3CCOCC3)CCSC2)C1 (centres undefined) | 14.2
CC(=O)c1ccc(S(=O)(=O)N2CCCC2CN2CCCC2)cc1 (centres undefined) | -8.94
CS(=O)(=O)c1nnc(NC(=O)CCc2cc(F)ccc2F)[nH]1 | -14.9
CC(=O)N(C)c1nc(CN2CCN(c3nccs3)CC2)cs1 | -5.68
Cc1nnc(N2CCN(C(=O)NC3CC3)CC2)c(C(N)=O)c1C | -15.7
Cc1ccsc1CNC(=O)Nc1ccn(CCN2CCOCC2)n1 | 14.8
O=C1CCc2cc(S(=O)(=O)NC(=O)c3ccc4c(c3)COC4)ccc2N1 | -12.1
CSc1ccc(NC(=O)Cc2cccc(O)c2)nc1 | -20.9
CN(C(=O)c1ccco1)C1CCC(NC(=O)OC(C)(C)C)CC1 (centres undefined) | -6.4
CN(C(=O)c1ccc[nH]1)C1CCC(NC(=O)OC(C)(C)C)CC1 (centres undefined) | -17.5
COCc1ccc(C(=O)NS(=O)(=O)c2ccc3c(c2)CCC(=O)N3)cc1 | 17.1
CC(=O)N1CCc2ccc(S(=O)(=O)N3CCCCC3C)cc21 (centres undefined) | 0.13
CN(Cc1ccc([S+](C)[O-])cc1)c1ccccn1 (centres undefined) | -10.9
O=C(Nc1cc(CSCCO)ccn1)c1ccc(Cl)o1 | -10.5
Cc1ccsc1CNC(=O)CC1CN(C(=O)OC(C)(C)C)C1 | -9.31
CCNC(=O)CN1CCSC2(CCCCC2)C1 | -11.1
CNS(=O)(=O)CCCN1CCCCCC1c1ccc(C)o1 (centres undefined) | -11
Cc1cscc1C(=O)Nc1cc(CSCCO)ccn1 | -3.95
Cc1cccc2nc(CSCc3nnnn3C(C)C)cn12 | -14.3
COCCN(Cc1ccco1)Cc1nc(-c2ccccc2)no1 | 19.2
Cc1nc(-c2ccccc2C)n(CC(=O)NC(C)C2CC2)n1 (centres undefined) | -5.7

SMILES | cytotoxicity at 70.5 h [%]
Cc1nc(C)n(CC2CCCN2c2ncnc3c2CCC3)n1 (centres undefined) | 15.2
CCCC(C#N)NC(=O)Cc1csc(CC)n1 (centres undefined) | -0.509
COCCSc1ccc(C(C)NC(=O)Nc2cn[nH]c2)cc1 (centres undefined) | -6.86
Cc1nc(-c2ccccc2)n(CC(=O)NC(C2CC2)C2CC2)n1 | -4.87
Cc1ccsc1CNc1ccc(C(=O)N2CCNC(=O)C2)cn1 | -2.58
Cc1noc(C)c1CN(C)Cc1nc(N)c2ccccc2n1 | 13.8
CC(C)Oc1ccc(-c2csc(Cn3ccc(=O)[nH]c3=O)n2)cc1 | -0.0528
O=C(Nc1ccccc1)NC1CCN(C2CCOC2)CC1 (centres undefined) | 5.7
Cc1cccc(NC(=O)NC2CCN(C3CCOC3)CC2)c1 (centres undefined) | 3.03
O=C(NCc1ccccn1)Nc1ccc2[nH]nnc2c1 | -4.24
Cn1cnnc1-c1cncc(NCc2ccccc2Br)c1 | 13.6
CC(=O)c1csc(-c2csc(Cn3ccc(=O)[nH]c3=O)n2)c1 | 4.03
NC(=O)NC(=O)CCn1ccc(-c2ccsc2)n1 | -1.15
Cc1noc(C)c1CSCc1nc(N)c2ccccc2n1 | 0.626
C[C@@H]1CN(C(=O)Nc2cccc(OC(F)F)c2)CC(C(N)=O)O1 (some centres undefined) | -1.07
Cn1cc(S(=O)(=O)N2CCC(OCCCc3ccccc3)C2)cn1 (centres undefined) | 21.6
CCc1nc(CC(=O)NC(C#N)CC(C)C)cs1 (centres undefined) | -0.177
COCCN(Cc1ccco1)Cc1nc(-c2ccsc2)no1 | 11.1
COCCN(Cc1ccco1)Cc1nc(-c2ccccc2C)no1 | 1.45
COCCN(Cc1ccco1)Cc1nc(-c2ccc(C)c(F)c2)no1 | 17.2
CCc1nc(CC(=O)NC(C#N)CC)cs1 (centres undefined) | -0.988
C1CCN(CCOC2CCNCC2)CC1 | 19.9
Cc1[nH]ccc1C(=O)N(Cc1ccc(O)cc1)CC1CC1 | -3.9
Cn1cc(C(=O)Nc2cccc(CCN3CCCC3)c2)ccc1=O | -5.46

SMILES | cytotoxicity at 70.5 h [%]
COCCNC(=O)C(C)S(=O)(=O)c1ccc(OC)cc1 (centres undefined) | 6.85
CC1CCN(c2ccnc3ccc(Br)cc23)CC1 | 2
O=C(CNC(=O)C1CC1)NCCOc1cccc(Cl)c1Cl | 31.3
O=C1CCC(C(=O)NCCOc2ccccc2-c2ccccc2)CN1 (centres undefined) | -13.3
CC(C)CNC(=O)c1ccc(NC(=O)NCC2CC2)cc1Cl | -12.7
NC(=O)CCn1nnc(-c2cc3ccccc3o2)n1 | -13.1
N#CCCN(Cc1ccco1)C(=O)Cc1ccc(-n2cnnn2)cc1 | -6.73
CSc1sc(NC(=O)C2CCCN(C(N)=O)C2)nc1C (centres undefined) | -13.6
CC1CCN(C(=O)C(C)N2CCc3[nH]nc(C(F)(F)F)c3C2)CC1 (centres undefined) | -8.79
CC(C)(C)CN(CCC#N)C(=O)Cc1ccc(-n2cnnn2)cc1 | -10.8
CC(C(=O)NC1CCCCC1)N1CCc2[nH]nc(C(F)(F)F)c2C1 (centres undefined) | -7.82
CC(C)(C)NS(=O)(=O)c1cc(NC(=O)C2CC2)ccc1F | -5.03
O=C(CCc1ccsc1)NS(=O)(=O)Cc1ccon1 | -0.591
CCN1CCN(C(=O)NC(C)c2noc(-c3ccccc3)n2)CC1 (centres undefined) | -6.34
O=C(CSCc1ccccn1)N(Cc1ccsc1)C1CC1 | -2.85
CC(C)(C)c1ncc(CNCC2CCCn3ccnc32)s1 (centres undefined) | -4.17
CN1CCOC(C(=O)Nc2ccc3c(c2)nc(C(C)(C)C)n3C)C1 (centres undefined) | -2.12
Cc1ccc(CNCC2CCCn3ccnc32)s1 (centres undefined) | -4.1
CCCN(CCN(C)C)C(=O)Cc1cn2ccsc2n1 | 5.05
N#Cc1ccc(NCCCOCC2CCOC2)c(F)c1 (centres undefined) | 6.96
CC(Cn1cccn1)NS(=O)(=O)Cc1ccccc1 (centres undefined) | 24.2
CN(CCC#N)C(=O)Cc1csc(-c2ncccn2)n1 | -3.29
c1cncc(-c2ccnn2CN2CCC3(CC2)OCCO3)c1 | -5.34
CN(C)C(=O)Cn1ccc2cc(NC(=O)N3CCSCC3)ccc21 | -7.46

SMILES | cytotoxicity at 70.5 h [%]
CN(C)C(=O)Cn1ccc2cc(NC(=O)N3CCOCC3)ccc21 | -5.35
Cc1cnn(CCCNC(=O)NC2CCN(CC(F)(F)F)C2=O)c1 (centres undefined) | -4.78
CC(C)(NCC(=O)N1CCCC(C(N)=O)C1)c1ccc(Cl)cc1 (centres undefined) | -3.83
CCC[C@@H](NC(N)=O)C(=O)N1Cc2ccccc2-c2ccccc2C1 | -2.69
CC(CC(=O)Nc1ccc(C(=O)N(C)C)c(Cl)c1)n1cccc1 (centres undefined) | 7.79
COc1cccc2c1CCN(C(=O)NCCc1nccn1C)C2 | -1.05
COc1cccc2c1CCN(C(=O)NCc1nnc3ccccn13)C2 | 0.687
CN1CCOC(C(=O)N2CCC3(CCCC3)CC2)C1 (centres undefined) | -2.13
COc1ccc(Cl)cc1NC(=O)N(C)CC(O)COCCOC(C)C (centres undefined) | -4.88
CC(=O)NC1CCCN(c2ccc(C#N)cc2C(F)(F)F)C1 (centres undefined) | -0.014
CN1CCOC(C(=O)N2CCCC(C)(C)CC2)C1 (centres undefined) | -3.51
O=S(=O)(Cc1ccccc1Cl)NC(CO)c1ccco1 (centres undefined) | -6.59
Cc1ccc(OCC(=O)N(C)Cc2ccc(F)cc2)cn1 | -8.48
COCC1CN(C(=O)Nc2cc(C(F)(F)F)ccc2F)CCO1 (centres undefined) | -5.23
COc1ccccc1CN(Cc1nc2c(cnn2C)c(=O)[nH]1)C1CC1 | 28.9
COc1ccccc1N(C)Cc1nc2c(cnn2C)c(=O)[nH]1 | -4.86
COc1ccccc1C1(CNc2snc(Cl)c2C#N)CCOCC1 | -4.49
CC(C)(CC(=O)N(CC(N)=O)C1CCCC1)c1ccccc1 | -9.09
CN(CCn1cccn1)S(=O)(=O)c1cccc(F)c1C#N | -9.35
COCC1CN(C(=O)Nc2cc(Cl)cc(Cl)c2)CCO1 (centres undefined) | -5.22
CCCn1nc(-c2nc(COc3ccccc3)no2)ccc1=O | -7.31
CCCn1nc(-c2nc(Cc3ccc(OC)cc3)no2)ccc1=O | -8.43
C1CCN(CCOC2CCNC2)CC1 (centres undefined) | -3.02

Reference: ChEMBL document CHEMBL3507680, “University of Dundee, Gates Library screen for HepG2 cell viability”
